# Data published in patent publication US20250122174A1 (Shenzhen Yuanli Shenwan Innovative Medicine Co., Ltd., priority 2022, published 2025).
# Target: HPK1 (Homo sapiens (Human), UniProt Q92918)
# Assay: HPK1 Inhibition Assay (ADP-Glo kinase assay)
# Assay type: biochemical
# Settings: ATP 10 μM
# Procedure: A stock solution of 10 mM test compound was prepared in DMSO. The compound was prepared by 5-fold and 10-point serial dilutions with HPK1 kinase assay buffer. The HPK1 kinase assay buffer contained 40 mM Tris, pH 7.5; 20 mM MgCl2, 0.1 mg/ml BSA, and 50 μM DTT. 7.5 ng/μl of Active HPK1 (Promega, V4098) and 0.1 μg/ml MBP substrate protein were added to the reaction system. The final concentration of ATP in the HPK1 kinase reaction system was 10 μM. Serial diluted compounds were transferred to the reaction system and incubated at room temperature for 1 hr. 5 μL of ADP-Glo™ Reagent (Promega, V9101) was added and incubated for 40 min to stop the kinase reaction and deplete the unconsumed ATP. […] The luminescence was measured with a plate-reading luminometer.
# HPK1, sequence (Q92918 1-346 limits assumed): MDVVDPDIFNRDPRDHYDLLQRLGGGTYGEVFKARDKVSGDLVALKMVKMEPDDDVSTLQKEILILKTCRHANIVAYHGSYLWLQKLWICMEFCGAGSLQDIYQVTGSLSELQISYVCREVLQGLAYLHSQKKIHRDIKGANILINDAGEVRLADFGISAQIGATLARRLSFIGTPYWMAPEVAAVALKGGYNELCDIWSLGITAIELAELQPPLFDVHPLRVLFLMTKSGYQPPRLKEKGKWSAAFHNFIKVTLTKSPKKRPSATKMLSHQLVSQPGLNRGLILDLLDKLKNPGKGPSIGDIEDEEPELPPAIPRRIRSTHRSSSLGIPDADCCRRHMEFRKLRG
row,IC50 [nM],SMILES
1,< 100,"COCCn1ncc2c(N3CCC[C@@H](N)C3)c(NC(=O)c3ccc(=O)n(-c4c(F)cccc4F)n3)cc(F)c21 [Example 286, (R)-N-(4-(3-aminopiperidin-1-yl)-7-fluoro-1-(2-methoxyethyl)-1H-indazol-5-yl)-1-(2,6-difluorophenyl)-6-oxo-1,6-dihydropyridazine-3-carboxamide]"
2,< 100,"N#Cc1ccncc1-c1ccc(NC(=O)c2ccc(=O)n(-c3c(F)cccc3Cl)n2)c(N2C[C@@H](N)C[C@H]2CO)c1 [Example 361, N-(2-((2S,4S)-4-amino-2-(hydroxymethyl)pyrrolidin-1-yl)-4-(4-cyanopyridin-3-yl)phenyl)-1-(2-chloro-6-fluorophenyl)-6-oxo-1,6-dihydropyridazine-3-carboxamide]"
3,< 100,"Cc1nn(C(C)C)c2ccc(NC(=O)c3ccc(=O)n(-c4c(F)cccc4F)n3)c(N3C[C@H](N)C4(CC4)C3)c12 [Example 202, (R)-N-(4-(7-amino-5-azaspiro[2.4]heptan-5-yl)-1-isopropyl-3-methyl-1H-indazol-5-yl)-1-(2,6-difluorophenyl)-6-oxo-1,6-dihydropyridazine-3-carboxamide]"
4,< 100,"[2H]C([2H])([2H])n1ncc2c(N3C[C@H](N)C4(CC4)C3)c(NC(=O)c3ccc(=O)n(-c4c(F)cccc4F)n3)ccc21 [Example 172, (R)-N-(4-(7-amino-5-azaspiro[2.4]heptan-5-yl)-1-(methyl-d3)-1H-indazol-5-yl)-1-(2,6-difluorophenyl)-6-oxo-1,6-dihydropyridazine-3-carboxamide]"
5,< 100,"CC1(C)CN(c2c(NC(=O)c3ccc(=O)n(-c4c(F)cccc4F)n3)ccc3nn(C(C)(C)C)cc23)C[C@H]1N [Example 237, (S)-N-(4-(4-amino-3,3-dimethylpyrrolidin-1-yl)-2-(tert-butyl)-2H-indazol-5-yl)-1-(2,6-difluorophenyl)-6-oxo-1,6-dihydropyridazine-3-carboxamide]"
6,< 100,"Cc1nc2c(N3CCC4(CNC4)C3)c(NC(=O)c3ccc(=O)n(-c4c(F)cccc4F)n3)ccc2n1C [Example 85, 1-(2,6-difluorophenyl)-N-(1,2-dimethyl-4-(2,6-diazaspiro[3.4]octan-6-yl)-1H-benzo[d]imidazol-5-yl)-6-oxo-1,6-dihydropyridazine-3-carboxamide]"
7,< 100,"N[C@@H]1CCN(c2c(NC(=O)c3ccc(=O)n(-c4c(F)cccc4F)n3)ccc3nn(CC4CC4)cc23)C1 [Example 330, (R)-N-(4-(3-aminopyrrolidin-1-yl)-2-(cyclopropylmethyl)-2H-indazol-5-yl)-1-(2,6-difluorophenyl)-6-oxo-1,6-dihydropyridazine-3-carboxamide]"
8,< 100,"C[C@@H]1CN(c2c(NC(=O)c3ccc(=O)n(-c4c(F)cccc4F)n3)ccc3nn(C45CCC(CC4)C5)cc23)C[C@@H]1N [Example 306, N-(4-((3R,4R)-3-amino-4-methylpyrrolidin-1-yl)-2-(bicyclo[2.2.1]heptan-1-yl)-2H-indazol-5-yl)-1-(2,6-difluorophenyl)-6-oxo-1,6-dihydropyridazine-3-carboxamide]"
9,100 to 1000,"COc1cccc(F)c1-c1nccc(C(=O)Nc2cc(F)ccc2N2C[C@@H]3C[C@H]2CN3)c1F [Example 1, N-(2-((1S,4S)-2,5-diazabicyclo[2.2.1]heptan-2-yl)-5-fluorophenyl)-3-fluoro-2-(2-fluoro-6-methoxyphenyl)isonicotinamide]"
10,100 to 1000,"Cc1nc2c(N3CC[C@H](N)C3)c(NC(=O)c3ccc(=O)n(-c4c(Cl)cccc4Cl)n3)ccc2n1C [Example 107, (S)—N-(4-(3-aminopyrrolidin-1-yl)-1,2-dimethyl-1H-benzo[d]imidazol-5-yl)-1-(2,6-dichlorophenyl)-6-oxo-1,6-dihydropyridazine-3-carboxamide]"
11,< 100,"CC1(C)CN(c2c(NC(=O)c3ccc(=O)n(-c4c(F)cccc4F)n3)ccc3nn(C4CC4)cc23)C[C@@H]1N [Example 334, (R)-N-(4-(4-amino-3,3-dimethylpyrrolidin-1-yl)-2-cyclopropyl-2H-indazol-5-yl)-1-(2,6-difluorophenyl)-6-oxo-1,6-dihydropyridazine-3-carboxamide]"
12,< 100,"[2H]C([2H])([2H])C(n1ncc2c(N3C[C@H](N)C(C)(C)C3)c(NC(=O)c3ccc(=O)n(-c4c(F)cccc4F)n3)ccc21)C([2H])([2H])[2H] [Example 279, (R)-N-(4-(4-amino-3,3-dimethylpyrrolidin-1-yl)-1-(propan-2-yl-1,1,1,3,3,3-d6)-1H-indazol-5-yl)-1-(2,6-difluorophenyl)-6-oxo-1,6-dihydropyridazine-3-carboxamide]"
13,< 100,"CC(C)n1cc2c(N3CCC[C@@H](N)C3)c(NC(=O)c3ccc(=O)n(-c4c(F)cccc4F)n3)ccc2n1 [Example 232, (R)-N-(4-(3-aminopiperidin-1-yl)-2-isopropyl-2H-indazol-5-yl)-1-(2,6-difluorophenyl)-6-oxo-1,6-dihydropyridazine-3-carboxamide]"
14,< 100,"N#Cc1ccncc1-c1ccc(NC(=O)c2ccc(=O)n(-c3c(F)cccc3F)n2)c(N2CCC(O)CC2)c1 [Example 349, N-(4-(4-cyanopyridin-3-yl)-2-(4-hydroxypiperidin-1-yl)phenyl)-1-(2,6-difluorophenyl)-6-oxo-1,6-dihydropyridazine-3-carboxamide]"
15,< 100,"Cc1nn(C(C)C)c2ccc(NC(=O)c3ccc(=O)n(-c4c(F)cccc4F)n3)c(N3CC[C@@H](N)C3)c12 [Example 195, (R)-N-(4-(3-aminopyrrolidin-1-yl)-1-isopropyl-3-methyl-1H-indazol-5-yl)-1-(2,6-difluorophenyl)-6-oxo-1,6-dihydropyridazine-3-carboxamide]"
16,< 100,"Cc1nc2c(N3C[C@H](N)C(F)(F)C3)c(NC(=O)c3ccc(=O)n(-c4c(F)cccc4F)n3)ccc2n1C [Example 94, (S)-N-(4-(4-amino-3,3-difluoropyrrolidin-1-yl)-1,2-dimethyl-1H-benzo[d]imidazol-5-yl)-1-(2,6-difluorophenyl)-6-oxo-1,6-dihydropyridazine-3-carboxamide]"
17,< 100,"N#Cc1ccncc1-c1ccc(NC(=O)c2ccc(=O)n(-c3c(F)cccc3F)n2)c(N2CC[C@@H](N)C2)c1 [Example 343, (R)-N-(2-(3-aminopyrrolidin-1-yl)-4-(4-cyanopyridin-3-yl)phenyl)-1-(2,6-difluorophenyl)-6-oxo-1,6-dihydropyridazine-3-carboxamide]"
18,< 100,"Cc1nc2c(N3C[C@H](N)C4(CC4)C3)c(NC(=O)c3ccc(=O)n(-c4c(F)cccc4F)n3)ccc2n1[C@H]1CCOC1 [Example 152, N-(4-((R)-7-amino-5-azaspiro[2.4]heptan-5-yl)-2-methyl-1-((S)-tetrahydrofuran-3-yl)-1H-benzo[d]imidazol-5-yl)-1-(2,6-difluorophenyl)-6-oxo-1,6-dihydropyridazine-3-carboxamide]"
19,< 100,"Cn1c(C(F)F)nc2c(N3CC[C@H](N)C3)c(NC(=O)c3ccc(=O)n(-c4c(F)cccc4F)n3)ccc21 [Example 161, (S)-N-(4-(3-aminopyrrolidin-1-yl)-2-(difluoromethyl)-1-methyl-1H-benzo[d]imidazol-5-yl)-1-(2,6-difluorophenyl)-6-oxo-1,6-dihydropyridazine-3-carboxamide]"
20,< 100,"CC(C)c1nc2c(N3CC(N)C(O)C3)c(NC(=O)c3ccc(=O)n(-c4c(F)cccc4F)n3)ccc2n1C (centres unmarked) [Example 142, N-(4-(3-amino-4-hydroxypyrrolidin-1-yl)-2-isopropyl-1-methyl-1H-benzo[d]imidazol-5-yl)-1-(2,6-difluorophenyl)-6-oxo-1,6-dihydropyridazine-3-carboxamide]"
21,< 100,"CC(C)c1nc2c(N3CC[C@@H](N)C3)c(NC(=O)c3ccnn(-c4c(F)cccc4F)c3=O)ccc2n1C [Example 163, (R)-N-(4-(3-aminopyrrolidin-1-yl)-2-isopropyl-1-methyl-1H-benzo[d]imidazol-5-yl)-2-(2,6-difluorophenyl)-3-oxo-2,3-dihydropyridazine-4-carboxamide]"
22,< 100,"CC(C)n1ncc2c(N3C[C@H](C)[C@@H](N)C3)c(NC(=O)c3ccc(=O)n(-c4c(F)cccc4F)n3)ccc21 [Example 209, N-(4-((3R,4S)-3-amino-4-methylpyrrolidin-1-yl)-1-isopropyl-1H-indazol-5-yl)-1-(2,6-difluorophenyl)-6-oxo-1,6-dihydropyridazine-3-carboxamide]"
23,< 100,"N[C@@H]1CCN(c2c(NC(=O)c3ccc(=O)n(-c4c(F)cccc4F)n3)ccc3nn(C4CCOCC4)cc23)C1 [Example 337, (R)-N-(4-(3-aminopyrrolidin-1-yl)-2-(tetrahydro-2H-pyran-4-yl)-2H-indazol-5-yl)-1-(2,6-difluorophenyl)-6-oxo-1,6-dihydropyridazine-3-carboxamide]"
24,< 100,"CC1(C)CN(c2c(NC(=O)c3ccc(=O)n(-c4c(F)cccc4F)n3)ccc3nn(C(C)(C)C)cc23)C[C@@H]1N [Example 236, (R)-N-(4-(4-amino-3,3-dimethylpyrrolidin-1-yl)-2-(tert-butyl)-2H-indazol-5-yl)-1-(2,6-difluorophenyl)-6-oxo-1,6-dihydropyridazine-3-carboxamide]"
25,< 100,"N#Cc1ccncc1-c1ccc(NC(=O)c2ccc(=O)n(-c3c(F)cccc3F)n2)c(N2CC[C@](N)(C(F)(F)F)C2)c1 (single isomer, unassigned) [Example 359]"
26,< 100,"CC(C)c1nc2c(N3C[C@H]4CNC[C@H]4C3)c(NC(=O)c3ccc(=O)n(-c4c(F)cccc4F)n3)ccc2n1C [Example 137, 1-(2,6-difluorophenyl)-N-(4-((3aR,6aS)-hexahydropyrrolo[3,4-c]pyrrol-2(1H)-yl)-2-isopropyl-1-methyl-1H-benzo[d]imidazol-5-yl)-6-oxo-1,6-dihydropyridazine-3-carboxamide]"
